Publication PMC8151276, “An Integrated Approach toward NanoBRET Tracers for Analysis of GPCR Ligand Engagement” (Molecules, 2021)

Columns and labels:
[1] = molecular target: T1, HTR5A (Homo sapiens, UniProt P47898); experiment: NanoBRET screen HiBiT-HTR5A in HEK293; format: binding
T1 construct: purchased Promega (in-house HiBiT-GPCR construct library, NanoBRET)
Description: (§1) Each tracer candidate was screened across the entire library of HiBiT-GPCR constructs using NanoBRET as the detection modality. As depicted in Figure 4A, the specificity of interactions was evaluated through decrease in BRET due to competitive displacement of a bound tracer by excess parental compound. Each tracer was analyzed for binding to each HiBiT-GPCR fusion in the absence and in the presence of competing parental compound. Briefly, HEK293 cells were transfected with HiBiT-GPCR constructs diluted into promoterless DNA to reduce expression and maximize translocation to the cell surface. Each tracer candidate was then screened at concentrations of 1 μM and 0.1 μM across cells expressing these fusions. Cells were treated for 1.5 h with tracer either alone or in the presence of 20 μM competing parental compound (i.e., control). BRET was measured upon addition of purified LgBiT and subsequent complementation with HiBiT genetically fused to a GPCR. The specificity of interactions was assessed through a decrease in BRET signal due to competitive displacement of the bound tracer. To further gauge the robustness of these interactions, the fold response over the control (i.e., BRETtracer/BRETcontrol) was calculated. We chose a 1.5-fold response, which translates to ≥7-fold signal over noise as the minimal threshold required to score an interaction as positive. […]. Below we highlight the screening results obtained for our exemplary fluorescent tracers based on Clozapine, Amitriptyline and AZD1283.
(§2) HiBiT-GPCR DNA constructs were diluted in 10 mM Tris pH 8 to a final concentration of 0.01 μg/μL, arrayed in 96-well plates and stored at −20 °C. For transfection, HEK293 cells were suspended in Opti-MEM (without phenol red) supplemented with 2% fetal bovine serum (Seradigm) and 100 units/mL penicillin–streptomycin (Gibco) at a final concentration of 220,000 cells/mL and dispensed into white 96-well plates at 90 μL/well. Subsequent transfections and screens were carried using an Agilent Bravo Automated Liquid Handling Platform. First, the 96-well HiBiT DNA arrays were diluted 25-fold in Opti-MEM (without serum or phenol red) to a final concentration of 0.0004 μg/μL and 20 μL of the diluted DNAs were transferred into new 96-well plates. Next, promoterless carrier DNA (1 μg/μL) was diluted 25-fold (0.04 μg/μL) and then dispensed into the diluted arrays at 20 μL/well. Following brief mixing, Viafect transfection reagent (Promega) diluted 16-fold into Opti-MEM was dispensed into the plates at 40 μL/well. After mixing by pipetting, plates were incubated for 10 min on the pipetting station deck. The DNA-transfection reagent complexes were then added to plates containing cells. To facilitate the screen, 10 μL of DNA-transfection reagent complexes were added in duplicates to the top 4 and bottom 4 rows, resulting in two identical 48-well arrays per plate. Plates with transfected cells were incubated for 18–20 h at 37 °C/5% CO2. A screen of each tracer across the entire library using two different concentrations requires duplicate plates of transfected cells. Depending on the number of tracers being screened, transfections can be scaled up using the same ratios. The next day, for each tracer, four 20× screening solutions in tracer dilution buffer (Promega) were prepared: two duplicates at final concentration of 20 μM and two duplicates at a final concentration of 2 μM. A competing unmodified compound was added to one of each duplicate at a final concentration of 400 μM. The four resulting solutions were diluted 4-fold in Opti-MEM without serum or phenol red to generate 5× solutions (5 µM and 0.5 µM tracer +/− 100 μM competing compound). To screen the library, a BioTek MultiFlo FX liquid dispenser was used to dispense 22.5 µL of tracer solution to the top 4 rows and 22.5 µL tracer + competing compound solution to the 4 bottom rows. Plates were briefly mixed on an orbital shaker and incubated for 1.5 h at room temperature. […]

[2] = molecular target: T2, EDNRA (Homo sapiens, UniProt P25101); experiment: NanoBRET screen HiBiT-EDNRA in HEK293; format: binding
T2 construct: purchased Promega (in-house HiBiT-GPCR construct library, NanoBRET)
T2 sequence (P25101 21-427): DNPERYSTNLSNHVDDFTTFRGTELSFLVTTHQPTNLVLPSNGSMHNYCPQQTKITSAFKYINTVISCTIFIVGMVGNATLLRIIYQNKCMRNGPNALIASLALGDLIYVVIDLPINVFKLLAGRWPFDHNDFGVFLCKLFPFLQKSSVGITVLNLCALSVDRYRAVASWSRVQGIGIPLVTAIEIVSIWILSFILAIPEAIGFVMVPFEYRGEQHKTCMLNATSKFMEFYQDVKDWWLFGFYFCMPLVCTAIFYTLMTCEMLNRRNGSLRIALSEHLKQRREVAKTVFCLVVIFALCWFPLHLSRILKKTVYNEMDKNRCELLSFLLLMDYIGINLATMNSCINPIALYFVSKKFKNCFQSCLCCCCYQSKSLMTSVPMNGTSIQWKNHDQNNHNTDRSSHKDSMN
Description: as §1, §2

[3] = tracer at 0.1μM, listed as amitriptyline-b-2-NB590
[4] = tracer at 1μM, listed as amitriptyline-b-2-NB590

T1 sequence (P47898 whole entry): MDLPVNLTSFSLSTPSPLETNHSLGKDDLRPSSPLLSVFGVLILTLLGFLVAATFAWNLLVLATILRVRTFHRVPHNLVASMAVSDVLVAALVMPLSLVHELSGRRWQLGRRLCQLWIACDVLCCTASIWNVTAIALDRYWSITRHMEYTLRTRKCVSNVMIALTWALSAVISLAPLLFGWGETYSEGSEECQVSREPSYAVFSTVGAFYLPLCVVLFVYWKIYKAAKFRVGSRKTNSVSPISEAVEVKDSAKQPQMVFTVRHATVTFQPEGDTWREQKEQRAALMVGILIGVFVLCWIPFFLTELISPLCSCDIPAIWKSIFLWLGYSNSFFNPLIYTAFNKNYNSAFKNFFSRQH

Compound	NanoBRET Fold Response ([1]; HTR5A, tracer 0.1μM)	NanoBRET Fold Response ([1]; HTR5A, tracer 1μM)	NanoBRET Fold Response ([2]; EDNRA, tracer 0.1μM)	NanoBRET Fold Response ([2]; EDNRA, tracer 1μM)	other results
CN1CCN(C2=Nc3cc(Cl)ccc3Nc3ccc(CNC(=O)CCOCCOCCOCCOCCNC(=O)CCc4ccc5n4[B-](F)(F)[N+]4=C(c6ccc[nH]6)C=CC4=C5)cc32)CC1 [Clozapine-b-2-NB590]					NanoBRET Fold Response ([1]; HTR5A, 0.1μM tracer): 1.07; NanoBRET Fold Response ([1]; HTR5A, 1μM tracer): 1.35; NanoBRET Fold Response ([2]; EDNRA, 0.1μM tracer): 0.99; NanoBRET Fold Response ([2]; EDNRA, 1μM tracer): 1.03
CN(C)CCC=C1c2ccccc2CCc2ccc(C(=O)NCCNC(=O)CCOCCOCCOCCOCCNC(=O)CCc3ccc4n3[B-](F)(F)[N+]3=C(c5ccc[nH]5)C=CC3=C4)cc21 [Amitriptyline-b-2-NB590]					NanoBRET Fold Response [1, 3]: 1.22; NanoBRET Fold Response [1, 4]: 1.26; NanoBRET Fold Response [2, 3]: 1.09; NanoBRET Fold Response [2, 4]: 0.94
CCOC(=O)c1cc(C#N)c(N2CCC(C(=O)NS(=O)(=O)Cc3ccccc3/C=C/C(=O)NCCNC(=O)CCc3ccc4n3[B-](F)(F)[N+]3=C(c5ccc[nH]5)C=CC3=C4)CC2)nc1C [AZD1283-1-NB590]					NanoBRET Fold Response ([1]; HTR5A, 0.1μM): 0.97; NanoBRET Fold Response ([1]; HTR5A, 1μM): 1.04; NanoBRET Fold Response ([2]; EDNRA, 0.1μM): 1.01; NanoBRET Fold Response ([2]; EDNRA, 1μM): 1.02
CC(C)N(CC[C@H](c1ccccc1)c1cc(CCNC(=O)CCOCCOCCOCCOCCNC(=O)CCc2ccc3n2[B-](F)(F)[N+]2=C(c4ccc[nH]4)C=CC2=C3)ccc1O)C(C)C [Tolterodine-2-NB590]	1.07	1.05	0.94	1.01	
CC(C)N(CC[C@H](c1ccccc1)c1cc(CCNC(=O)c2ccc(CNC(=O)CCc3ccc4n3[B-](F)(F)[N+]3=C(c5ccc[nH]5)C=CC3=C4)cc2)ccc1O)C(C)C [Tolterodine-BZ-NB590]	0.98	1.03	1.05	1.11	
O=C(CCOCCOCCOCCOCCNC(=O)CCc1ccc2n1[B-](F)(F)[N+]1=C(c3ccc[nH]3)C=CC1=C2)NCCCN1CCN(C2=Nc3ccccc3Oc3ccc(Cl)cc32)CC1 [Loxapine-a-2-NB590]	0.97	1.32	1.05	0.85	
CN1CCN(C2=Nc3cc(Cl)ccc3N(CC(=O)NCCOCCOCCOCCOCCNC(=O)CCc3ccc4n3[B-](F)(F)[N+]3=C(c5ccc[nH]5)C=CC3=C4)c3ccccc32)CC1 [Clozapine-c-2-NB590]					NanoBRET Fold Response ([1]; HTR5A, 0.1μM tracer): 1.02; NanoBRET Fold Response ([1]; HTR5A, 1μM tracer): 1.00; NanoBRET Fold Response ([2]; EDNRA, 0.1μM tracer): 0.99; NanoBRET Fold Response ([2]; EDNRA, 1μM tracer): 0.87
CN(C)CCC=C1c2ccccc2CCc2ccc(C(=O)NCCNC(=O)CCOCCOCCOCCOCCNC(=O)CCc3ccc4n3[B-](F)(F)[N+]3=C(c5ccc[nH]5)C=CC3=C4)cc21 [Amitriptyline-a-2-NB590]					NanoBRET Fold Response ([1]; tracer at 0.1μM): 1.08; NanoBRET Fold Response ([2]; tracer at 0.1μM): 0.99; NanoBRET Fold Response ([2]; tracer at 1μM): 0.99
Cc1nc2n(c(=O)c1CCN1CCC(c3noc4cc(F)ccc34)CC1)CCCC2OC(=O)NCCOCCOCCOCCOCCNC(=O)CCc1ccc2n1[B-](F)(F)[N+]1=C(c3ccc[nH]3)C=CC1=C2 (stereo not shown) [Risperidone-2-NB590]	1.03	1.28	1.04	0.97	
COc1ccc2[nH]c(-c3ccc(CNC(=O)CCOCCOCCOCCOCCNC(=O)CCc4ccc5n4[B-](F)(F)[N+]4=C(c6ccc[nH]6)C=CC4=C5)cc3)c(CCNC(C)=O)c2n1 [AzomelatoninICO9-2-NB590]					NanoBRET Fold Response ([1]; 0.1μM tracer): 1.02; NanoBRET Fold Response ([1]; 1μM tracer): 0.84; NanoBRET Fold Response ([2]; 0.1μM tracer): 0.87; NanoBRET Fold Response ([2]; 1μM tracer): 0.99
COc1ccccc1N1CCN(CCCCN2C(=O)c3ccc(CNC(=O)CCOCCOCCOCCOCCNC(=O)CCc4ccc5n4[B-](F)(F)[N+]4=C(c6ccc[nH]6)C=CC4=C5)cc3C2=O)CC1 [NAN-190-2-NB590]	0.96	1.13	1.02	1.05	
O=C(CCc1ccc2n1[B-](F)(F)[N+]1=C(c3ccc[nH]3)C=CC1=C2)NCCOCCOCCNC(=O)OCCOCCN1CCN(C2=Nc3ccccc3Sc3ccccc32)CC1 [Quetiapine-a-2-NB590]	0.96	0.99	1.03	1.04	
O=C(CCOCCOCCOCCOCCNC(=O)CCc1ccc2n1[B-](F)(F)[N+]1=C(c3ccc[nH]3)C=CC1=C2)NCCCN1CCN(C2=Nc3cc(Cl)ccc3Nc3ccccc32)CC1 [Clozapine-a-2-NB590]					NanoBRET Fold Response ([1]; HTR5A, 0.1μM tracer): 1.11; NanoBRET Fold Response ([1]; HTR5A, 1μM tracer): 1.29; NanoBRET Fold Response ([2]; EDNRA, 0.1μM tracer): 1.04; NanoBRET Fold Response ([2]; EDNRA, 1μM tracer): 0.90
N#CN=C(NCCCOc1cccc(CN2CCCCC2)c1)NCCNC(=O)CCOCCOCCOCCOCCNC(=O)CCc1ccc2n1[B-](F)(F)[N+]1=C(c3ccc[nH]3)C=CC1=C2 [Aminopotentidine-2-NB590]	1.00	0.90	1.03	1.04	
O=C(CCc1ccc2n1[B-](F)(F)[N+]1=C(c3ccc[nH]3)C=CC1=C2)NCc1ccc(C(=O)NCCOCCOCCNCC(O)COc2cccc3ccccc23)cc1 (stereo not shown) [Propranolol-3-NB590]					NanoBRET Fold Response ([1]; HTR5A, 0.1μM): 1.10; NanoBRET Fold Response ([1]; HTR5A, 1μM): 1.03; NanoBRET Fold Response ([2]; EDNRA, 0.1μM): 0.97; NanoBRET Fold Response ([2]; EDNRA, 1μM): 1.03
O=C(CCc1ccc2n1[B-](F)(F)[N+]1=C(c3ccc[nH]3)C=CC1=C2)NCc1ccc(C(=O)NCCOCCC(=O)N[C@@H]2CC[C@@]3(O)[C@H]4Cc5ccc(O)c6c5[C@@]3(CCN4CC3CC3)[C@H]2O6)cc1 [Naltrexone-3-NB590]	0.69	0.98	1.00	0.98	
COc1ccccc1N1CCN(CCCCN2C(=O)c3ccc(CNC(=O)CCOCCNC(=O)c4ccc(CNC(=O)CCc5ccc6n5[B-](F)(F)[N+]5=C(c7ccc[nH]7)C=CC5=C6)cc4)cc3C2=O)CC1 [NAN-190-3-NB590]	0.99	1.06	1.01	1.21	
Cc1cc2c(s1)Nc1ccccc1N=C2N1CCN(CCCNC(=O)CCOCCOCCOCCOCCNC(=O)CCc2ccc3n2[B-](F)(F)[N+]2=C(c4ccc[nH]4)C=CC2=C3)CC1 [Olanzapine-a-2-NB590]	1.06	1.03	1.02	1.10	
N#CN/C(=N\CCNC(=O)c1ccc(N)cc1)NCCCOc1cccc(CN2CCCCC2)c1 [Aminopotentidine (unmodified)]					NanoBRET Fold Response ([1]; HTR5A, other tracers/Aminopotentidine (unmodified), 0.1μM): 1.11; NanoBRET Fold Response ([1]; HTR5A, other tracers/Aminopotentidine (unmodified), 1μM): 1.09
